Reference: patent publication US20220347167A1, “A NEW TREATMENT FOR MEIBOMIAN GLAND DYSFUNCTION” (The Schepens Eye Research Institute, Inc., priority 2019, published 2022)
“Also recorded” adds a separate entry of the source.

How the values were obtained:
HIF1α = HIF1α expression in IHMGECs by western blot; type: cell-based, human; design: HIF1α accumulation in IHMGECs, combination of Roxa and low O2: dose or concentration left out as unconfirmed
Protocol: Authenticated IHMGECs were grown and passaged in keratinocyte serum-free medium (KSFM) with 5 ng/mL epidermal growth factor (EGF) and 50 μg/mL bovine pituitary extract (BPE) (Thermo Fisher Scientific, Waltham, Mass.) under 21% O2 (normoxia) [Liu et al. (2010) Investigative ophthalmology & visual science 51:3993-4005; McDermott et al. (2018) Current eye research 43:1097-1101; Liu et al. (2013) Investigative ophthalmology & visual science 54:2541-2550]. Upon reaching 60% to 70% confluence, culture media were replaced by a 1:1 mixture of Dulbecco's modified Eagle's medium and Ham's F12 (DMEM/F12, Corning Life Sciences, Tewksbury, Mass.), supplemented with 10% fetal bovine serum (FBS, Atlanta Biologicals, Flowery Branch, Ga.) [Sullivan et al. (2014) Investigative ophthalmology & visual science 55:3866-3877; Liu et al. (2014) JAMA ophthalmology 132:226-228]. […] Culture plates of cells in the hypoxic condition were incubated inside hypoxia chambers filled with a premade 1% O2, 5% CO2 and 94% N2 gas mixture (Linde Gas North America, Hammond, Ind.), according to published protocols in Liu et al. (2019) The ocular surface 17(2):310-317 and Wright and Shay (2006) Nat Protoc 1:2088-2090. Following cell medium changes, the chambers were re-flushed with the gas mixture before returning to the incubator. […] Cell culture experiments (n=3 wells/treatment) were repeated at least 3 times.
[…] The cells were lysed in 2× Laemmli sample buffer (Bio-Rad Laboratories, Hercules, Calif.) and sonicated to extract nuclear protein [Andersen et al. (2002) Current biology: CB 12:1-11]. Human hepatocellular carcinoma cell lines (HepG2 cells) (America Type Culture Collection, Manassas, Va.), which express high concentration of HIF1α under CoCl2 stimulation for 4 hours [Yoo et al. (2014) Journal of cellular biochemistry 115:1147-1158], were used as a positive control for HIF1α antibody. The CoCl2 was purchased from Sigma-Aldrich Corp (St. Louis, Mo.). Cell lysates were then evaluated for HIF1α (1:1000, BD Biosciences, San Jose, Calif.) or β-actin (1:10,000, Cell Signaling Technology) expression. […]

IHMGECs = experiment: Oil red O (ORO) staining of neutral lipid droplets in IHMGECs; type: cell-based, human
Protocol: Authenticated IHMGECs were grown and passaged in keratinocyte serum-free medium (KSFM) with 5 ng/mL epidermal growth factor (EGF) and 50 μg/mL bovine pituitary extract (BPE) (Thermo Fisher Scientific, Waltham, Mass.) under 21% O2 (normoxia) [Liu et al. (2010) Investigative ophthalmology & visual science 51:3993-4005; McDermott et al. (2018) Current eye research 43:1097-1101; Liu et al. (2013) Investigative ophthalmology & visual science 54:2541-2550]. Upon reaching 60% to 70% confluence, culture media were replaced by a 1:1 mixture of Dulbecco's modified Eagle's medium and Ham's F12 (DMEM/F12, Corning Life Sciences, Tewksbury, Mass.), supplemented with 10% fetal bovine serum (FBS, Atlanta Biologicals, Flowery Branch, Ga.) [Sullivan et al. (2014) Investigative ophthalmology & visual science 55:3866-3877; Liu et al. (2014) JAMA ophthalmology 132:226-228]. Cells were cultured for 4-10 days under 21% O2 (normoxic) or 1% O2 (hypoxic) conditions. […]
After four days of incubation, cells seeded on chamber slides (Corning, Rochester, N.Y.) were stained with 0.3% Oil red 0 (ORO, Fisher Biotec, Wembley, Wash., Australia) according to the published protocol in Liu et al. (2010) Investigative ophthalmology & visual science 51:3993-4005) and Liu et al. (2014) Toxicology 320:1-5. […] The size of the stained area was quantified using ImageJ [Deutsch et al. (2014) Anal Biochem 445:87-89]. […]

MG cells = experiment: Staining of dissected mouse eyelids for MG cell differentiation markers; type: in vivo; settings: eyelids of Roxa-treated ApoE −/− mice
Excerpt: The mice eyelids were collected and dissected after sacrificing. The dissected samples were stained with different antibodies and dyes for lipids. For example, the dissected mice lid samples were stained with Oil Red O and LipidTox™ (Invitrogen) for evaluation of lipid accumulation. The sections were stained for pimonidazole, DNase II, HIF1α, PPARγ, Desmoglein and Desmocollin for the evaluation of cell differentiation and maturation. […] These markers include intracellular lipid accumulation, as well as expression of peroxisome proliferator-activated receptor gamma (PPAR-γ), Desmoglein and Desmocollin in MG cells.

In the case of `Cc1nc(C(=O)NCC(=O)O)c(O)c2ccc(Oc3ccccc3)cc12` [Roxa, roxadustat], the “HIF1α expression in IHMGECs, Roxa compared with low O2 alone” value (HIF1α; 21% O2, 6 hours, vs 1% O2 alone) is reported as “significantly more HIF1α expression than low O2 alone”, the “HIF1α accumulation in IHMGECs, combination of Roxa and low O2” value (HIF1α; 6 hours) is reported as “greatest accumulation” and the “HIF1α expression in IHMGECs (band intensity normalized to β-actin)” value (HIF1α; Roxa (10 μM elsewhere in the source), normoxic 21% O2, 6 hours, vs control) is reported as “significantly increased”. The “accumulation of neutral lipid droplets in IHMGECs (area of ORO staining)” value (IHMGECs; Roxa alone, 21% O2, 4 days) was “significantly increased; also recorded: duplicated the effect of a hypoxic environment”, the “accumulation of neutral lipid droplets in IHMGECs (area of ORO staining), combination of Roxa and 1% O2” value (IHMGECs; Roxa in 1% O2, 4 days) was “significantly increased; also recorded: further increased” and the “expression of Desmocollin in MG cells” value (MG cells) was “promoted expression”. The “expression of Desmoglein in MG cells” value (MG cells) was “promoted expression”, the “expression of peroxisome proliferator-activated receptor gamma (PPAR-γ) in MG cells” value (MG cells) was “promoted expression” and the “intracellular lipid accumulation in MG cells (differentiation marker)” value (MG cells) was “promoted expression”.
